Data on 6 compounds can be found in publication PMC8260228, “Two de novo GluN2B mutations affect multiple NMDAR-functions and instigate severe pediatric encephalopathy” (eLife, 2021).

Test [1] deals with T1, hGluN1a + hGluN2Bwt (Homo sapiens, UniProt Q05586+Q13224). Kind of test: Mg2+ dose-response (block), TEVC in Xenopus oocytes. Type of test: cell-based. Details: expressed in transfected cells; host or cells: Xenopus laevis oocytes injected with in vitro transcribed mRNA (pCI-Neo plasmids produced by the Traynelis lab). As to conditions: 5 mM glutamate, 100 μM glycine, −60 mV; read-out: Mg^+2 IC50 (−60 mV).

The subject of a further test is GluN2B-E413G. Details: method as in Swanger et al., 2016. As to conditions: read-out: glutamate potency EC50; ref Swanger et al., 2016; cited from earlier work.
The subject of a further test is GRIN2A mutation D731N. On the set-up: method as in Swanger et al., 2016. As to conditions: ref Swanger et al., 2016; cited from earlier work.
A further test has as its system GluN2B-mutant. On the set-up: method as in Soto et al., 2019. The conditions noted are these: ref Soto et al., 2019; cited from earlier work.
Test [2] has as its target T1, hGluN1a + hGluN2Bwt. Kind of test: Glutamate dose-response, TEVC in Xenopus oocytes. Type of test: cell-based. On the set-up: expressed in transfected cells; host or cells: Xenopus laevis oocytes injected with in vitro transcribed mRNA (pCI-Neo plasmids produced by the Traynelis lab). The text has this:
All Experiments were approved by the Technion Institutional Animal Care and Use Committee (permit SB, no. IL-129-09-17). Xenopus laevis oocytes were harvested, prepared, and injected with mRNA as previously described ([Berlin et al., 2020]). Briefly, oocytes were obtained from anesthetized (by 0.4% tricaine solution) female frogs. Oocytes were extracted from ovaries, defolliculated by collagenase treatment in ND96 Ca^+2-free solution (in mM: 96 NaCl, 2 KCL, 1 MgCl2, 5 HEPES, pH 7.4) for about 45 min at RT. Cells were washed with ND96 Ca^+2 -free and transferred to enriched ND96 (NDE) consisting of ND96 supplemented with 1.8 mM CaCl2, 2.5 mM sodium pyruvate, 100 μg/ml streptomycin and 62.75 μg/ml penicillin. Stage V oocytes were manually isolated, incubated overnight at 18°C and injected with mRNA the next day.
For mRNA preparation, DNA plasmids were linearized by restriction enzymes (NotI), followed by in vitro mRNA transcription using mMessage-mMachine T7 kit (Thermo Scientific, Cat.#AM1344), as previously described ([Berlin et al., 2010]). mRNA concentrations were determined using a spectrophotometer. […]
Data were analyzed by Clampfit software (Molecular Devices, USA) and were fitted using Sygmaplot 11 (Systat software, inc) to Hill’s equation (Equation 1) from which we extracted EC50 values.

Test [3] has as its target T1, hGluN1a + hGluN2Bwt. Kind of test: Apparent open probability: MK-801 block kinetics, TEVC in oocytes. Type of test: cell-based. Details: expressed in transfected cells; host or cells: Xenopus laevis oocytes injected with in vitro transcribed mRNA (pCI-Neo plasmids produced by the Traynelis lab). The conditions noted are these: 1 μM MK-801 after 3 mM glutamate, 100 μM glycine. Here is the method: MK-801 (activity-dependent pore blocker of GluNRs) was purchased from Alomone labs (cat.# M-230). One mM stock solutions were made by diluting lyophilized MK-801 in barth solution. […] Deactivation kinetics were fitted from which we extracted t10-90% or deactivation constant, τoff.
(§1) Data were analyzed by Clampfit software (Molecular Devices, USA) and were fitted using Sygmaplot 11 (Systat software, inc) to Hill’s equation (Equation 1) from which we extracted EC50 values. […] IC50 values for Mg^+2 and proton inhibition were extrapolated by fitting the results to Hill’s equation (Equation 4). τoff values for apparent open probability were extrapolated by fitting the result to a mono-exponential function (Equation 5). t10-90% results were obtained by placing cursors at beginning and end of responses, then automatically assessed by the Clampfit software (under statistics, positive going). mEPSCs were detected off-line using pCLAMP 10’s template search. Briefly, 5–10 ‘minis’ were identified and selected by user, followed by an automated search. All automatically identified minis were validated by user.

Test [4] addresses T1, hGluN1a + hGluN2Bwt. The conditions noted are these: read-out: Glycine EC50; 5 mM glutamate. The protocol:
Two electrode voltage clamp (TEVC) recordings were carried-out 24–72 hr following mRNA injections, as previously described ([Berlin et al., 2011]). Recordings were performed using commercial amplifier (Warner Instruments, USA) and Digitizer (Digidata-1550B; Molecular Devices, USA), controlled by pClamp10 software (Molecular Devices, USA). Electrodes consisted of pulled glass capillaries (by puller- Narishige, Japan) with chlorinated silver wire, filled with 3M KCl. Oocytes were clamped to −60 mV and perfused with nominally Mg^+2-free barth solution (in mM): 100 NaCl, 0.3 BaCl2, 5 HEPES, pH 7.3 (adjusted with NaOH).
as §1, with “All automatically identified minis were validated by user.” left out

For another test, the system named is GluN1. On the set-up: method as in Traynelis et al., 2010. As to conditions: ref Traynelis et al., 2010; cited from earlier work.
The target of test [5] is T1, hGluN1a + hGluN2Bwt. Kind of test: Assessing potentiation by D-serine, TEVC in oocytes. As to conditions: 100 μM D-serine, 5 mM glutamate, 1 μM glycine.
Test [6] addresses T1, hGluN1a + hGluN2Bwt. Here is the method: With the intent to rescue (i.e. increase) current amplitudes, we turned our attention toward spermine— a naturally-occurring and highly specific GluN2B-subunit potentiator ([Mony et al., 2009]; [Mony et al., 2011]). […] To further address this issue we employed arcaine-sulfate (a competitive antagonist of the polyamine site [[Gomes et al., 2014]; [Araneda et al., 1999]; [Reynolds, 1990]]).
Spermine was purchased from Sigma-Aldrich (Cat. #S3256). A total of 200 mM stock solutions were made by diluting powdered spermine in barth solution at different pHs (6.3 and 7.3). […] Arcaine sulfate was purchased from Alomone labs (Cat. # 14923-17-2). Ten mM solutions were made by diluting lyophilized Arcaine sulfate in barth solution at pH = 6.5.

A further test relates to GluN2B-subunit. The conditions noted are these: read-out: spermine reported EC50; ref Mony et al., 2011; cited from earlier work.

Like-named read-outs stand apart in the source and are kept apart here.

T1 sequence (Q13224 27-1484, other chains not shown): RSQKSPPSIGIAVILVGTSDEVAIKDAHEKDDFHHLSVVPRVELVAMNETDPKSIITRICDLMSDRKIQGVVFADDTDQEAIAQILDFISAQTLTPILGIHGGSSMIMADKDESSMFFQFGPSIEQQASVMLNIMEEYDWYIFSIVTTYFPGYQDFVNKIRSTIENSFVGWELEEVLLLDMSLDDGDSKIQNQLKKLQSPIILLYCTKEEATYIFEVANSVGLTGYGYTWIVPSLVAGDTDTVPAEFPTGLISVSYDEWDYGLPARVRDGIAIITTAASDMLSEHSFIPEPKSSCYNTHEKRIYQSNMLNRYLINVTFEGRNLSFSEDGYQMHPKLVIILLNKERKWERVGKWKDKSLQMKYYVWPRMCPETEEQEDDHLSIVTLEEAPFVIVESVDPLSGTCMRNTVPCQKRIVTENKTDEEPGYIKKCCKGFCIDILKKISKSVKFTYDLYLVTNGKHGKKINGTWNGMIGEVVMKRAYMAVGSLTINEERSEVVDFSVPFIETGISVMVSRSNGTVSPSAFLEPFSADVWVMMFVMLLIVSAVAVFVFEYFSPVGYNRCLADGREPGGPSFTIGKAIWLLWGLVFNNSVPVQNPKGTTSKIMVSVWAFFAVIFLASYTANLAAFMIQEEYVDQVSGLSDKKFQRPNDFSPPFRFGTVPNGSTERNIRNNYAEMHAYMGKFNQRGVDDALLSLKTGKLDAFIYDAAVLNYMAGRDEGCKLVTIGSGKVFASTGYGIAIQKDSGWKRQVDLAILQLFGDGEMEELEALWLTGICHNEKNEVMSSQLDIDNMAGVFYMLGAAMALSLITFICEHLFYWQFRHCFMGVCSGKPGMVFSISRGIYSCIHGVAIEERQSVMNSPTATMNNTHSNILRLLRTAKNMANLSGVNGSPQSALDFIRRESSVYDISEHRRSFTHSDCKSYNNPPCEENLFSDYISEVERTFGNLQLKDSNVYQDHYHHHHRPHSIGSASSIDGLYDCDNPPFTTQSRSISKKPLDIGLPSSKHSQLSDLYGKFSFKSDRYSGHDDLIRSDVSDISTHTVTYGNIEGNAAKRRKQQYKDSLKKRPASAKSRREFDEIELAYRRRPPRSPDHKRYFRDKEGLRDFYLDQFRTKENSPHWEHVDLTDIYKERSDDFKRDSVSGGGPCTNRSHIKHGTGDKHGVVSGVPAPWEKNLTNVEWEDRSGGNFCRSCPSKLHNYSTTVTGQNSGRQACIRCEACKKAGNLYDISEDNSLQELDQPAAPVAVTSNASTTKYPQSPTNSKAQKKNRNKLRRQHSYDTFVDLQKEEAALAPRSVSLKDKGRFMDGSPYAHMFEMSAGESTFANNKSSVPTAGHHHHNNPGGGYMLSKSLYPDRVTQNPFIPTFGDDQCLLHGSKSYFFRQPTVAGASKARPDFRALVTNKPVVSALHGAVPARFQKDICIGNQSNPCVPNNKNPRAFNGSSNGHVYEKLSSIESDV

By IC50 is commonly meant the concentration that gives 50% inhibition. For the compound `[Mg+2]` [Mg^+2], on hGluN1a + hGluN2Bwt [1], the IC50 was 31 ± 3.7 µM.

Usually EC50 stands for the concentration needed to bring the measured effect to its halfway point. For the compound `N[C@@H](CCC(=O)O)C(=O)O` [Glutamate, glutamate], in the test with GluN2B-E413G, the EC50 is 79 ± 5.3 µM. Moreover, the “reduction in glutamate potency” value in the test with GRIN2A mutation D731N is given as ~ 6000 fold. Also, in the test with GluN2B-mutant, the “reduction in EC50” value is reported as ~ 7 fold. On hGluN1a + hGluN2Bwt [2] (normalized maximal glutamate current, oocytes), the “Imax Norm. to wt” value is 1 ± 0.08; (22). Moreover, at hGluN1a + hGluN2Bwt [2] (receptors saturated at 100 μM glutamate), the “contribution to the total current by excess glutamate >100 μM” value is recorded as below 15%.

As to `C[C@]12N[C@H](Cc3ccccc31)c1ccccc12` [MK-801], the “10–90% inhibition rate” value on hGluN1a + hGluN2Bwt [3] is listed as 8554 ± 827 ms; (24). For the same compound, on hGluN1a + hGluN2Bwt [3] (mono-exponential fit), the τoff is recorded as 4590 ± 603 ms; (24).

As to `NCC(=O)O` [Glycine, glycine], the EC50 at hGluN1a + hGluN2Bwt [4] is 0.23 ± 0.03 µM; in the test with GluN1, […].

On to `N[C@H](CO)C(=O)O` [D-serine], for which, in the test on GluN1, the EC50 was around 0.7 µM. Further, the “increase of the maximal current by D-serine” value at hGluN1a + hGluN2Bwt [5] is reported as ~ 35%.

For the compound `NCCCNCCCCNCCCN` [spermine], the potentiation by spermine at hGluN1a + hGluN2Bwt [6] (200 μM spermine, pH 6.3) is ~ 25 fold; on hGluN1a + hGluN2Bwt [6] (200 μM spermine, pH 7.3), ~ 70%. Moreover, the “current with spermine relative to basal glutamate current” value on hGluN1a + hGluN2Bwt [6] (200 μM spermine, pH 7.3, 5 mM glutamate, 100 μM glycine) is on record as 172%. In addition, the “inhibition by higher spermine concentrations” value on hGluN1a + hGluN2Bwt [6] (pH 7.3) is recorded as “not observed”. The EC50 in the test with GluN2B-subunit is 200 µM.
